From article PMC5358098 (ACS chemical neuroscience, 2016)
Where two headings read alike, the source gives them in different places.

What was measured:
[1] = target: T1, CB1R (Homo sapiens, UniProt P21554); type: cell-based; details: Neuro2a, 30 min
[2] = target: T1, CB1R; assay: cell-based; type: cell-based
[3] = target: T1, CB1R; type: cell-based; details: HEK293A, 30 min
[4] = target: T1, CB1R; assay: [3H]SR141716A equilibrium binding, hCB1R CHO cell membranes
[5] = tested on: CB1R; details: cited from earlier work
[6] = tested on: CB1R; type: cell-based; details: mean of data for the pathway (Table 2), all cells and orthosteric ligands
[7] = target: T1, CB1R; assay: cell-based; type: cell-based; remark: listed apart in the source
[8] = target: T1, CB1R; assay: cell-based
[9] = target: T1, CB1R; type: cell-based; details: HEK293A, 10 min
[10] = target: T2, CB1R (Mus musculus, UniProt P47746); type: cell-based; details: Neuro2a, 10 min
T2 sequence (P47746 whole entry): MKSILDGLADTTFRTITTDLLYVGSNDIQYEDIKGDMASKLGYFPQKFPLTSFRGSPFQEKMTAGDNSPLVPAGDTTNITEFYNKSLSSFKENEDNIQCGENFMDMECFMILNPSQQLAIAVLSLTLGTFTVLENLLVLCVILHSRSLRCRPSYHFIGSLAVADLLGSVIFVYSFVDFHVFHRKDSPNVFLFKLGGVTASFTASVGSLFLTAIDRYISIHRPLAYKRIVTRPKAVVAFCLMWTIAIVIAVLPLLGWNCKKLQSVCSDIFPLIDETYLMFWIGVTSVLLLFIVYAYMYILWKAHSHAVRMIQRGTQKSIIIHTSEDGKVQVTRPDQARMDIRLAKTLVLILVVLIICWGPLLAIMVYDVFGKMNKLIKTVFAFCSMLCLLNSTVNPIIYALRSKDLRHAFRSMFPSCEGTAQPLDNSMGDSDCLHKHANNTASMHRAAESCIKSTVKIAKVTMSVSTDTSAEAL

[11] = target: T2, CB1R; assay: Operational model bias analysis, STHdh^Q7/Q7 cells; details: STHdh^Q7/Q7
[12] = tested on: hCB1R; assay: Operational model bias analysis, HEK293A cells; type: cell-based, human; details: HEK293A; for ΔΔlog R β-arrestin1/cAMP / ΔΔlog R β-arrestin1/pPLCβ3: reference 2-AG + GAT100
[13] = target: T2, CB1R; type: cell-based; details: Neuro2a, 10 min; remark: listed apart in the source
[14] = tested on: CB1R
[15] = target: T2, CB1R; assay: Operational model bias analysis, Neuro2a cells; type: cell-based; details: for ΔΔlog R β-arrestin1/pPLCβ3: reference 2-AG + GAT100
[16] = tested on: CB1R; type: cell-based; details: mean of data for the pathway (Table 3), all cells and orthosteric ligands
[17] = target: T2, CB1R
[18] = 500 nM 2-AG + 1 nM-10 μM allosteric modulator
[19] = 500 nM AEA + 1 nM-10 μM allosteric modulator
[20] = 500 nM CP55,940 + 1 nM-10 μM allosteric modulator

T1 sequence (P21554 whole entry): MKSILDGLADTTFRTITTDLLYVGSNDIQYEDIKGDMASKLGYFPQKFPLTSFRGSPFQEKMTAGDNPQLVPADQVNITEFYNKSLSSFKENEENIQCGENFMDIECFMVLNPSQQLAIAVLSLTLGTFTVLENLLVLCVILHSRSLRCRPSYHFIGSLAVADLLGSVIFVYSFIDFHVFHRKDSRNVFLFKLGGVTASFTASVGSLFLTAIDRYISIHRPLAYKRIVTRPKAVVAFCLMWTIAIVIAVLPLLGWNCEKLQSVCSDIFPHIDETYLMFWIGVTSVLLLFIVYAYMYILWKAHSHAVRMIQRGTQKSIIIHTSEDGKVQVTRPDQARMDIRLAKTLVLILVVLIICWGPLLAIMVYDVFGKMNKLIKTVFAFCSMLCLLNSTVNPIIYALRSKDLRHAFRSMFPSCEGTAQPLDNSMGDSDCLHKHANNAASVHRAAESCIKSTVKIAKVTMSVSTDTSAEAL

SMILES: CCc1c(C(=O)NCCc2ccc(N3CCCCC3)cc2)[nH]c2ccc(N=C=S)cc12 [GAT100, 3-ethyl-5-isothiocyanato-N-(4-(piperidin-1-yl)phenethyl)-1H-indole-2-carboxamide]
- Emax (BRETEff), 2-AG ([1]; 1 nM-10 μM 2-AG + 1 μM NAM): 0.25 ± 0.03
- Emax (BRETEff), AEA ([1]; 1 nM-10 μM AEA + 1 μM NAM): 0.29 ± 0.02
- Emax (BRETEff), CP55,940 ([1]; 1 nM-10 μM CP55,940 + 1 μM NAM): 0.34 ± 0.02
- Emax pPLCβ3/Total PLCβ3, 2-AG ([2]; HEK293A, 1 nM-10 μM 2-AG + 1 μM NAM, 10 min): 0.39 ± 0.02
- Emax pPLCβ3/Total PLCβ3, AEA ([2]; HEK293A, 1 nM-10 μM AEA + 1 μM NAM, 10 min): 0.36 ± 0.01
- Emax pPLCβ3/Total PLCβ3, CP55,940 ([2]; HEK293A, 1 nM-10 μM CP55,940 + 1 μM NAM, 10 min): 0.39 ± 0.01
- IC50 ([2]; IC50, PLCβ3 phosphorylation, CP55,940): 76.6 nM
- Emax (BRETEff), 2-AG ([3]; 1 nM-10 μM 2-AG + 1 μM NAM): 0.29 ± 0.01
- Emax (BRETEff), AEA ([3]; 1 nM-10 μM AEA + 1 μM NAM): 0.37 ± 0.03
- Emax (BRETEff), CP55,940 ([3]; 1 nM-10 μM CP55,940 + 1 μM NAM): 0.30 ± 0.04
- EC50 [4]: 410 nM
- [3H]SR141716A binding at 10 μM ([4]; 10 μM): did not completely abrogate
- fold greater potency than Org27569 as inhibitor of [3H]SR141716A binding ([4]; EC50 ratio): ~ 6 fold
- Emax ([4]; read-out: Emax, [3H]SR141716A binding): 22.6%
- effect on CP55,940 equilibrium binding by CB1R [5]: increase CP55,940 equilibrium binding
- Emax, PLCβ3 (pathway ligand bias summary) [6]: 0.38 ± 0.01
- IC50 [7]: 741 nM
- effect on cAMP levels in the absence of orthosteric agonists (inverse agonism) ([7]; HEK-CRE, 10 μM forskolin + 1 nM to 10 μM compound alone, 4 h): did not affect cAMP accumulation
- IC50 ([7]; IC50, cAMP, CP55,940): 834 nM
- Emax, cAMP (pathway ligand bias summary) ([7]; mean of data for the pathway (Table 4), cAMP Emax divided by 100): 0.16 ± 0.04
- IC50 [8]: 35.8 nM
- Emax, β-arrestin1 (pathway ligand bias summary) ([8]; mean of data for the pathway (Table 1), all cells and orthosteric ligands): 0.30 ± 0.01
- Emax pERK1/2/Total ERK1/2, 2-AG ([9]; 1 nM-10 μM 2-AG + 1 μM NAM): 0.33 ± 0.02
- Emax pERK1/2/Total ERK1/2, AEA ([9]; 1 nM-10 μM AEA + 1 μM NAM): 0.31 ± 0.02
- Emax pERK1/2/Total ERK1/2, CP55,940 ([9]; 1 nM-10 μM CP55,940 + 1 μM NAM): 0.29 ± 0.02
- Emax pPLCβ3/Total PLCβ3, 2-AG ([10]; 1 nM-10 μM 2-AG + 1 μM NAM): 0.34 ± 0.02
- Emax pPLCβ3/Total PLCβ3, AEA ([10]; 1 nM-10 μM AEA + 1 μM NAM): 0.37 ± 0.02
- Emax pPLCβ3/Total PLCβ3, CP55,940 ([10]; 1 nM-10 μM CP55,940 + 1 μM NAM): 0.39 ± 0.02
- BF β-arrestin1/pERK1/2 [11, 18]: 1.0
- BF β-arrestin1/pPLCβ3 [11, 18]: 1.0
- BF β-arrestin1/pERK1/2 [11, 19]: 1.3
- BF β-arrestin1/pPLCβ3 [11, 19]: 7.9
- BF β-arrestin1/pERK1/2 [11, 20]: 0.6
- BF β-arrestin1/pPLCβ3 [11, 20]: 5.0
- BF β-arrestin1/cAMP [12, 18]: 1.0
- BF β-arrestin1/pERK1/2 [12, 18]: 1.0
- BF β-arrestin1/pPLCβ3 [12, 18]: 1.0
- ΔΔlog R β-arrestin1/cAMP [12, 18]: 0.0 ± 0.1
- ΔΔlog R β-arrestin1/pPLCβ3 [12, 18]: 0.0
- BF β-arrestin1/cAMP [12, 19]: 0.8
- BF β-arrestin1/pERK1/2 [12, 19]: 0.3
- BF β-arrestin1/pPLCβ3 [12, 19]: 0.1
- ΔΔlog R β-arrestin1/cAMP [12, 19]: –0.1 ± 0.1
- ΔΔlog R β-arrestin1/pPLCβ3 [12, 19]: –1.2 ± 0.8
- BF β-arrestin1/cAMP [12, 20]: 1.3
- BF β-arrestin1/pERK1/2 [12, 20]: 0.6
- BF β-arrestin1/pPLCβ3 [12, 20]: 0.6
- ΔΔlog R β-arrestin1/cAMP [12, 20]: 0.1 ± 0.1
- ΔΔlog R β-arrestin1/pPLCβ3 [12, 20]: –0.2 ± 0.1
- Emax pERK1/2/Total ERK1/2, 2-AG ([13]; 1 nM-10 μM 2-AG + 1 μM NAM): 0.31 ± 0.02
- Emax pERK1/2/Total ERK1/2, AEA ([13]; 1 nM-10 μM AEA + 1 μM NAM): 0.28 ± 0.02
- Emax pERK1/2/Total ERK1/2, CP55,940 ([13]; 1 nM-10 μM CP55,940 + 1 μM NAM): 0.33 ± 0.02
- Emax, 2-AG (probe dependence summary) ([14]; mean of data for 2-AG (Tables 1-4)): 0.31 ± 0.02
- Emax, AEA (probe dependence summary) ([14]; mean of data for AEA (Tables 1-4)): 0.36 ± 0.03
- Emax, CP55,940 (probe dependence summary) ([14]; mean of data for CP55,940 (Tables 1-4)): 0.33 ± 0.02
- Emax, HEK293A (cell dependence summary) ([14]; mean of data for HEK293A (Tables 1-3)): 0.34 ± 0.01
- Emax, Neuro2a (cell dependence summary) ([14]; mean of data for Neuro2a (Tables 1-3)): 0.32 ± 0.01
- Emax, STHdh^Q7/Q7 (cell dependence summary) ([14]; mean of data for STHdh^Q7/Q7 (Tables 1-3)): 0.34 ± 0.02
- BF β-arrestin1/pERK1/2 [15, 18]: 1.0
- BF β-arrestin1/pPLCβ3 [15, 18]: 1.0
- ΔΔlog R β-arrestin1/pPLCβ3 [15, 18]: 0.0 ± 0.1
- BF β-arrestin1/pERK1/2 [15, 19]: 7.9
- BF β-arrestin1/pPLCβ3 [15, 19]: 15.8
- ΔΔlog R β-arrestin1/pPLCβ3 [15, 19]: 1.2 ± 0.1
- BF β-arrestin1/pERK1/2 [15, 20]: 10.0
- BF β-arrestin1/pPLCβ3 [15, 20]: 3.2
- ΔΔlog R β-arrestin1/pPLCβ3 [15, 20]: 0.5 ± 0.2
- Emax, ERK (pathway ligand bias summary) [16]: 0.32 ± 0.01
- effect on CP55,940-induced CB1R internalization (fraction of CB1R at the plasma membrane) ([17]; STHdh^Q7/Q7, 1 μM + 500 nM CP55,940): reversed this effect

SMILES: CCCCCCC(C)(C)c1ccc([C@@H]2C[C@H](O)CC[C@H]2CCCO)c(O)c1 [CP55,940, 2-[(1R,2R,5R)-5-hydroxy-2-(3-hydroxypropyl)cyclohexyl]-5-(2-methyloctan-2-yl)phenol]
- Emax ([7]; read-out: Emax (% cAMP inhibition), agonist alone): 106 ± 11.4%
- CB1R internalization, agonist alone [17]: sustained CB1R internalization beginning at 30 min
